Assay results taken from ChEMBL document CHEMBL5096240, “Discovery of Potent and Selective Inhibitors of Wild-Type and Gatekeeper Mutant Fibroblast Growth Factor Receptor (FGFR) 2/3” (J Med Chem, 2022).
Values after ≈ are worked out from the molar mass of the structure shown. Active and inactive are the calls of the source. The calls are words filed in the database; no cut-off is given here.

What was measured:
[1] = Solubility of compound in SGF by HPLC assay; format: physicochemical
[2] = Clearance in Sprague-Dawley rat assessed as hepatic blood flow at 0.73 mg/kg, iv measured upto 24 hrs by LC-MS/MS analysis; format: ADME, organism-based; settings: in vivo
[3] = Oral bioavailability in Sprague-Dawley rat at 3.1 mg/kg measured upto 24 hrs by LC-MS/MS analysis; format: ADME, organism-based; settings: in vivo
Cytochrome P450 3A4 = Cytochrome P450 3A4 (Homo sapiens, UniProt P08684); experiment: Inhibition of human liver microsomes CYP3A4 using midazolam or testosterone as substrate in presence of NADPH regenerating system by LC-MS/MS analysis; parameters: species or system Microsome
Chain of Cytochrome P450 3A4 (P08684 whole entry): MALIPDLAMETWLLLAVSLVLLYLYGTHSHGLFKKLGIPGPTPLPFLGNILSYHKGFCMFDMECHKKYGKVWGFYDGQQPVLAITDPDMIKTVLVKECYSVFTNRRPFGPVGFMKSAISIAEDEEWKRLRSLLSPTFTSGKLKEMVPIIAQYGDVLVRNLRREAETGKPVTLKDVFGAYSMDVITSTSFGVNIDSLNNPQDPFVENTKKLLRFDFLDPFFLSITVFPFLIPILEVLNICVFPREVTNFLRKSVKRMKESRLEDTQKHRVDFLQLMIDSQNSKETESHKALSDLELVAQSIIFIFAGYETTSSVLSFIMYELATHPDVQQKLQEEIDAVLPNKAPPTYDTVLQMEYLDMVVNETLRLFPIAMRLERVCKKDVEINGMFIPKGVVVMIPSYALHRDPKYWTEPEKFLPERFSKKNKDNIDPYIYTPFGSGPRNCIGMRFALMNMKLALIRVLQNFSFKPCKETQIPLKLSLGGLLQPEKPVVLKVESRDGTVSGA

[4] = Cmax in Sprague-Dawley rat at 3.1 mg/kg, po measured upto 24 hrs by LC-MS/MS analysis; format: ADME, organism-based; parameters: time < 24 hrs, dose 3.1 mg/kg, route po; settings: in vivo
[5] = Apparent permeability in human Caco-2 cells at 50 uM incubated for 120 mins by LC-MS/MS analysis; format: ADME, cell-based
[6] = Half life in Sprague-Dawley rat at 0.73 mg/kg, iv measured upto 24 hrs by LC-MS/MS analysis; format: ADME, organism-based; settings: in vivo
[7] = Solubility of compound in FaSSIF by HPLC assay; format: physicochemical
[8] = AUC in Sprague-Dawley rat at 3.1 mg/kg, po measured upto 24 hrs by LC-MS/MS analysis; format: ADME, organism-based; parameters: time < 24 hrs, dose 3.1 mg/kg, route po; settings: in vivo
[9] = target: Fibroblast growth factor receptor 4 (Homo sapiens, UniProt P22455); experiment: Inhibition of recombinant human FGFR4 (460 to 802 residues) using biotin-EQEDEPEGDYFEWLE-amide as substrate preincubated for 5 to 10 mins followed by substrate addition and measured after 1 hr by HTRF assay
Chain of Fibroblast growth factor receptor 4 (P22455 whole entry, the tested form may be a part): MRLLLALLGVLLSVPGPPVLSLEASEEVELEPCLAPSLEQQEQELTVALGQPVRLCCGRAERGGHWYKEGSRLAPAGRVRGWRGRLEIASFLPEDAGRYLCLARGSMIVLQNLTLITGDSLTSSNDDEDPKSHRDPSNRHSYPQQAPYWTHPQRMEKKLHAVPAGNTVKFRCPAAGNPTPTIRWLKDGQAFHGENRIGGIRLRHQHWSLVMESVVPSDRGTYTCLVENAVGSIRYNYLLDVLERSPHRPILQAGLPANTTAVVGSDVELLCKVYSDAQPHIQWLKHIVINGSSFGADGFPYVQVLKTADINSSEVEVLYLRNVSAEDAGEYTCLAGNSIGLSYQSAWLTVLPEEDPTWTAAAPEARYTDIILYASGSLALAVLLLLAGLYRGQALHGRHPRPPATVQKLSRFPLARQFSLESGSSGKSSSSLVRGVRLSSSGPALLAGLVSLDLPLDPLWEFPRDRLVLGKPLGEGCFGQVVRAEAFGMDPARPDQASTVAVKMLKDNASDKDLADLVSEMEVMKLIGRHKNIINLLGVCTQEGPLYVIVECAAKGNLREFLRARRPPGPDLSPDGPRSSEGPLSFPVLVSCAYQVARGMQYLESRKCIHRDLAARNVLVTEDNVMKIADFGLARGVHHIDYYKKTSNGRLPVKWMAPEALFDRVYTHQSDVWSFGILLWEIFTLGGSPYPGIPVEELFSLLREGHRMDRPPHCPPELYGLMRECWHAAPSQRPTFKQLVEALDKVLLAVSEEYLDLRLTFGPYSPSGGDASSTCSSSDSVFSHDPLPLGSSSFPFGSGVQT

[10] = Volume of distribution at steady state in Sprague-Dawley rat at 0.73 mg/kg, iv measured upto 24 hrs by LC-MS/MS analysis; format: ADME, organism-based; settings: in vivo, read-out: Vdss
[11] = target: High affinity nerve growth factor receptor (Homo sapiens, UniProt P04629); experiment: Inhibition of wild type partial length human TRKA (G475 to G790 residues) expressed in mammalian expression system using Ulight-p70S6K peptide substrate incubated for 90 mins in presence of ATP by HTRF assay
Chain of High affinity nerve growth factor receptor (P04629 whole entry, the tested form may be a part): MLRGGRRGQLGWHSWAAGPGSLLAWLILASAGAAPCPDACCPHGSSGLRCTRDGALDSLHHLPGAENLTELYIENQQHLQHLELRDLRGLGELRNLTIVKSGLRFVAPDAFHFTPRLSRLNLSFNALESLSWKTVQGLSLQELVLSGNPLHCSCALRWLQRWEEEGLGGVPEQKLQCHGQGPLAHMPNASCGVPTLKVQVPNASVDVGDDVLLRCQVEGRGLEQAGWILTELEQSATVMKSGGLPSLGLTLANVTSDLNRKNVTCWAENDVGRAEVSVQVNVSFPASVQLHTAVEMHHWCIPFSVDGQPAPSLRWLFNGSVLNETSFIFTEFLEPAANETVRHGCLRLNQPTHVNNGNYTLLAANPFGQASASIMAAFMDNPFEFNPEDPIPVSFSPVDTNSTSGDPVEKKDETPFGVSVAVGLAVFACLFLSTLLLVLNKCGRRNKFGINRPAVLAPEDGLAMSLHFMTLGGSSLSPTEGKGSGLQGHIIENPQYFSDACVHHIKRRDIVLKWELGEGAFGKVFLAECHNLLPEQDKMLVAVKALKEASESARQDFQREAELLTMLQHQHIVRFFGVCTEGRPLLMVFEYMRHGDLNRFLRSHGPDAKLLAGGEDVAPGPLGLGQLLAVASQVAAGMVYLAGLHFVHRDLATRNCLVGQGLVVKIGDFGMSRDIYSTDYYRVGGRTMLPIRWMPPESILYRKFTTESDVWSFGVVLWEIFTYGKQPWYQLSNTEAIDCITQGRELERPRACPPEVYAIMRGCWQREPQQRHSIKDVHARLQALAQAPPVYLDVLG

[12] = target: Mast/stem cell growth factor receptor Kit (Homo sapiens, UniProt P10721); experiment: Inhibition of wild type partial length human KIT (I571 to D952 residues) expressed in bacterial expression system using Ulight-p70S6K peptide substrate incubated for 90 mins in presence of ATP by HTRF assay
Chain of Mast/stem cell growth factor receptor Kit (P10721 whole entry, the tested form may be a part): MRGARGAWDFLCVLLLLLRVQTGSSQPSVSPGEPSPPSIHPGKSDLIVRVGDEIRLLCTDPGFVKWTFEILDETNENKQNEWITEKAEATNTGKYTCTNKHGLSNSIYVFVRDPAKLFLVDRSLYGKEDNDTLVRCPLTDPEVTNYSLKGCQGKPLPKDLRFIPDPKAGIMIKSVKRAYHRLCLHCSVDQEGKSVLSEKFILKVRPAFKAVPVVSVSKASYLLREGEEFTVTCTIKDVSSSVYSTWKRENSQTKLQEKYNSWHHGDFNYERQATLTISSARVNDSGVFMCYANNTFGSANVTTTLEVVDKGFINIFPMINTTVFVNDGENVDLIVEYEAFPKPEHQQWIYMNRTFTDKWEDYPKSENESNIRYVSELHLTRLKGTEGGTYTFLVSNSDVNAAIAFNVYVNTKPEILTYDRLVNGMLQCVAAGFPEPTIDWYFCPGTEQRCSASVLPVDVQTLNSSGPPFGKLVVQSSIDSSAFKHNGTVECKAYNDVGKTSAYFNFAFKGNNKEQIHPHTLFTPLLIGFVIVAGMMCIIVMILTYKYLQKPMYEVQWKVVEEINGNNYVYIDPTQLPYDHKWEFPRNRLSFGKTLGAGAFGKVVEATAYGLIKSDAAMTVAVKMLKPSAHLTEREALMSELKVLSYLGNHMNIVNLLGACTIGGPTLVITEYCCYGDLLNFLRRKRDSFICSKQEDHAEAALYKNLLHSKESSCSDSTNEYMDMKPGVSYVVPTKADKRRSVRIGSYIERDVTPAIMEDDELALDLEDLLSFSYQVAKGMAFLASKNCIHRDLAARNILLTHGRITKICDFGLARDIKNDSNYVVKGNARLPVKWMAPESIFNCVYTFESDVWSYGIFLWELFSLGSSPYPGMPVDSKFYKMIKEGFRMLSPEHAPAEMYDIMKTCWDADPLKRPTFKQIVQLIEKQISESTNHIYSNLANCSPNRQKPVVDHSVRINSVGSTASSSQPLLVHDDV

[13] = target: Platelet-derived growth factor receptor beta (Homo sapiens, UniProt P09619); experiment: Inhibition of wild type partial length human PDGFRbeta (V582 to Y1009 residues) expressed in bacterial expression system using Ulight-p70S6K peptide substrate incubated for 90 mins in presence of ATP by HTRF assay
Chain of Platelet-derived growth factor receptor beta (P09619 whole entry, the tested form may be a part): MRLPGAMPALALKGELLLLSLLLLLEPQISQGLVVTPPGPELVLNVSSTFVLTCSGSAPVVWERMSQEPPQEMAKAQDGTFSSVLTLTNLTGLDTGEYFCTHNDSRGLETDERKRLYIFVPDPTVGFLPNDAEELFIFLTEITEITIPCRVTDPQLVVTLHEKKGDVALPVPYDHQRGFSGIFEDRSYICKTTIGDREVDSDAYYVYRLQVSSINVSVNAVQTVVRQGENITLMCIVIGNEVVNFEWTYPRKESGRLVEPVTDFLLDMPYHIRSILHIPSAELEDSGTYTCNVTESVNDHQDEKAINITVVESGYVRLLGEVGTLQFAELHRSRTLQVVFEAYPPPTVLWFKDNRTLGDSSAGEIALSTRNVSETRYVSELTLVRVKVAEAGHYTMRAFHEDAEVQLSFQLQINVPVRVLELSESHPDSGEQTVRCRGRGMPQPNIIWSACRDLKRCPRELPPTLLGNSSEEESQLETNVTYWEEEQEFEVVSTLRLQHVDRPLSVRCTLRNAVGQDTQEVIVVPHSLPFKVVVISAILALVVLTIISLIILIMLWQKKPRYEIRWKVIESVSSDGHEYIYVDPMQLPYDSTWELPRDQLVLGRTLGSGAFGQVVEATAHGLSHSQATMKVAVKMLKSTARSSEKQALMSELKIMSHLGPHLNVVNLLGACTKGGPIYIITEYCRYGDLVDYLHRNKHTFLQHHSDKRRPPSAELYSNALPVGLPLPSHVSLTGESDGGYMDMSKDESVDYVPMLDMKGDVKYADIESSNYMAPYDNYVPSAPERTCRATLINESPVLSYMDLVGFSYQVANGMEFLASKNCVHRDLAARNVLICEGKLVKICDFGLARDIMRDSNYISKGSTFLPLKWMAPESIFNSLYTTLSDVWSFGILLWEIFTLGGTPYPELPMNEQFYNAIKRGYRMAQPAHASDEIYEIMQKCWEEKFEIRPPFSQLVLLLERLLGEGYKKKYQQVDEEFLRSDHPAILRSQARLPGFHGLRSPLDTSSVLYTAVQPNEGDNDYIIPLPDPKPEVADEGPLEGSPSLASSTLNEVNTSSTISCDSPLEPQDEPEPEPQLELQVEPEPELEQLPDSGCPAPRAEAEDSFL

CYP3A4 = CYP3A4 (Homo sapiens, UniProt P08684); experiment: Inhibition of human liver microsomes CYP3A4 at 5 uM using midazolam or testosterone as substrate in presence of NADPH regenerating system by LC-MS/MS analysis relative to control; format: ADME, Microsome; settings: probe midazolam or testosterone
Chain of CYP3A4 (P08684 whole entry, the tested form may be a part): as the sequence (P08684 whole entry) above

[14] = target: Fibroblast growth factor receptor 2 (Homo sapiens, UniProt P21802); experiment: Inhibition of N-terminal GST tagged recombinant human FGFR2 (400 to 821 residues) expressed in an Sf9 infected baculovirus expression system using biotin-EQEDEPEGDYFEWLE-amide as substrate preincubated for 5 to 10 mins followed by substrate addition and measured after 1 hr by HTRF assay
Chain of Fibroblast growth factor receptor 2 (P21802 whole entry, the tested form may be a part): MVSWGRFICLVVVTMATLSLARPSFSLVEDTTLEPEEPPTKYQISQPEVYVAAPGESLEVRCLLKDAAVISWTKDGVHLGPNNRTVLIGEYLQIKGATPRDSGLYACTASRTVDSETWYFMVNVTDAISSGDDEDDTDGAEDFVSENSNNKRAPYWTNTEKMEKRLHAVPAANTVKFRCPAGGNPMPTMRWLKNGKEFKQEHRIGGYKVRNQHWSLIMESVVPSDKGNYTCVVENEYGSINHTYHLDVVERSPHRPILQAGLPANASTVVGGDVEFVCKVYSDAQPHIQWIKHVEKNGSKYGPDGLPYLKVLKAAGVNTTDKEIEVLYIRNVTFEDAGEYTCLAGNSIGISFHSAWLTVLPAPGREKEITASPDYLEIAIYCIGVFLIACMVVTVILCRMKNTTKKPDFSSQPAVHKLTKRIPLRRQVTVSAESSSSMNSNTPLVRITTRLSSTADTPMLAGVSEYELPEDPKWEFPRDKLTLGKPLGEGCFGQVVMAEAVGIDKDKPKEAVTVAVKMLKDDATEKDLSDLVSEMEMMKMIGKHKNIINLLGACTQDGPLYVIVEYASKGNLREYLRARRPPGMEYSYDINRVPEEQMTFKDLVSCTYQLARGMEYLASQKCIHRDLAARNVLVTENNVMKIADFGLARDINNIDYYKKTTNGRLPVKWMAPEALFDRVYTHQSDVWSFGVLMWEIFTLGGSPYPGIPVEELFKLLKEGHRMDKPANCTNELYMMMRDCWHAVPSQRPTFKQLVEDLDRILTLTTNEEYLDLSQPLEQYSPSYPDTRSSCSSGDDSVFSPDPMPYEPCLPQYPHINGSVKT

Mus musculus = experiment: In vivo inhibition of ERK phosphorylation in human UMUC14 cells xenografted with NSG mouse at 100 mg/kg, po measured after 2 hrs by MSD assay; format: functional, organism-based

| SMILES | IC50 (Cytochrome P450 3A4) | Papp at 2 h, 50 µM [5] | IC50 [11] | IC50 [12] | IC50 [13] | also measured |
| --- | --- | --- | --- | --- | --- | --- |
| [2H]C([2H])([2H])NC(=O)c1cncc(-c2cnn3cc(-c4cnn(C(C)C)c4)c(O[C@H]4CCOC4)nc23)c1 | > 25 µM | 2 ×10⁻⁶ cm/s |  |  |  | solubility [1]: 679 µg/mL (≈ 1510 µM); QH [2]: 35%; bioavailability [3]: 82%; Cmax [4]: 2.3 µM; half-life [6]: 102 min; solubility [7]: 18 µg/mL (≈ 40 µM); AUC at 24 h [8]: 5.11 µM·h; IC50 [9]: 145 nM; Vd [10]: 1.6 L/kg |
| CNC(=O)c1ccc(F)c(-c2cnc3cc(-c4cnn(C)c4)c(OC)nn23)c1 |  |  | 11 nM | 180 nM | 348 nM |  |
| CNC(=O)c1cc(C)cc(-c2cnc3cc(-c4cnn(C(C)C)c4)c(O[C@H]4CCOC4)nn23)c1 |  |  | 363 nM | 22 nM | 126 nM |  |
| CNC(=O)c1cccc(-c2cnc3cc(-c4cnn(C)c4)c(OC)nn23)c1 |  |  | 58 nM |  | 38 nM |  |
| CCNC(=O)c1cncc(-c2cnn3cc(-c4cnn(CC)c4)c(O[C@H]4CCOC4)nc23)c1 | > 25 µM | 0.6 ×10⁻⁶ cm/s |  |  |  |  |
| CNC(=O)c1cncc(-c2cnn3cc(-c4cnn(C)c4)c(OC4CCOC4)nc23)c1 (racemic) | > 5 µM | 0.2 ×10⁻⁶ cm/s |  |  |  | inhibition at 5 µM (CYP3A4): 15% |
| [2H]C([2H])([2H])NC(=O)c1cncc(-c2cnn3cc(-c4ccn(C(C)C)n4)c(N[C@H]4CCOC4)nc23)c1 |  |  |  |  |  | IC50 [14]: 0.2 nM |
| CNC(=O)c1cncc(-c2cnn3cc(-c4cnn(C(C)C)c4)c(O[C@H]4CCOC4)nc23)c1 | 9 µM | 1.5 ×10⁻⁶ cm/s |  |  |  | solubility [1]: > 400 µg/mL; solubility [7]: 17 µg/mL (≈ 38 µM); Activity (Mus musculus): Active |

Second part, led by results:

| IC50 (Cytochrome P450 3A4) | Papp at 2 h, 50 µM [5] | IC50 [11] | IC50 [12] | IC50 [13] | SMILES | also measured |
| --- | --- | --- | --- | --- | --- | --- |
|  |  | 443 nM | 619 nM | 800 nM | CNC(=O)c1cc(-c2cnc3cc(-c4cnn(C)c4)c(O[C@H]4CCOC4)nn23)c(F)c(C(F)F)c1 |  |
|  |  | 118 nM | 82 nM | 66 nM | CNC(=O)c1cccc(-c2cnc3cc(-c4cnn(C)c4)c(O[C@H]4CCOC4)nn23)c1 |  |
|  |  | 293 nM | 1660 nM | 1390 nM | CNC(=O)c1cc(C)c(F)c(-c2cnc3cc(-c4cnn(C)c4)c(O[C@H]4CCOC4)nn23)c1 |  |
| 3.9 µM | 5.7 ×10⁻⁶ cm/s | 285 nM | 1450 nM | 1740 nM | CNC(=O)c1cc(F)c(F)c(-c2cnc3cc(-c4cnn(C)c4)c(O[C@H]4CCOC4)nn23)c1 | solubility [1]: > 400 µg/mL; QH [2]: 3.3%; bioavailability [3]: 54%; Cmax [4]: 6.17 µM; half-life [6]: 318 min; solubility [7]: 118 µg/mL (≈ 260 µM); AUC at 24 h [8]: 33.6 µM·h; Vd [10]: 0.35 L/kg |
| > 5 µM |  | 7300 nM | 284 nM | 370 nM | CNC(=O)c1cncc(-c2cnc3cc(-c4cnn(C)c4)c(OC4CCOC4)nn23)c1 (configuration not stated) | inhibition at 5 µM (CYP3A4): 0% |
